According to patent US8192962B2, “Processes for detecting toxic substances” (Daikin Industries, Ltd., priority 2001, dated 2012):

Tested on: DNA repair protein genes
Test: DNA chip mRNA expression in yeast, DNA repair protein genes (Table 3)
Type: cell-based, Saccharomyces cerevisiae S288C
Details: incubated two hours, concentrations as in the 1st table
Summary of the method: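 Chemical exposure: 2 h, log-phase S. cerevisiae S288C, YPD, 25° C., dose set to inhibit growth without death. Profiling: mRNA labeled by reverse transcription with Cy3- or Cy5-dUTP, hybridized to whole-genome array. Output: fluorescence ratio against untreated culture.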

CCCCCCCCCCCCc1ccc(S(=O)(=O)[O-])cc1.[Na+] [(17), sodium dodecylbenzosulfonate]
The level of expressed mRNA in the presence of chemical substance/The level of expressed mRNA in the absence of chemical substance (yeast gene YAL015C): 1.1 | The level of expressed mRNA in the presence of chemical substance/The level of expressed mRNA in the absence of chemical substance (yeast gene YAR007C): 0.8 | The level of expressed mRNA in the presence of chemical substance/The level of expressed mRNA in the absence of chemical substance (yeast gene YBL019W): 0.8 | The level of expressed mRNA in the presence of chemical substance/The level of expressed mRNA in the absence of chemical substance (yeast gene YBR073W): 0.7 | The level of expressed mRNA in the presence of chemical substance/The level of expressed mRNA in the absence of chemical substance (yeast gene YBR272C): 1.1 | The level of expressed mRNA in the presence of chemical substance/The level of expressed mRNA in the absence of chemical substance (yeast gene YCR014C): 1.0 | The level of expressed mRNA in the presence of chemical substance/The level of expressed mRNA in the absence of chemical substance (yeast gene YDL017W): 0.8 | The level of expressed mRNA in the presence of chemical substance/The level of expressed mRNA in the absence of chemical substance (yeast gene YDL059C): 0.8 | The level of expressed mRNA in the presence of chemical substance/The level of expressed mRNA in the absence of chemical substance (yeast gene YDL200C): 0.9 | The level of expressed mRNA in the presence of chemical substance/The level of expressed mRNA in the absence of chemical substance (yeast gene YDR054C): 0.8 | The level of expressed mRNA in the presence of chemical substance/The level of expressed mRNA in the absence of chemical substance (yeast gene YDR369C): 0.8 | The level of expressed mRNA in the presence of chemical substance/The level of expressed mRNA in the absence of chemical substance (yeast gene YEL019C): 0.8 | The level of expressed mRNA in the presence of chemical substance/The level of expressed mRNA in the absence of chemical substance (yeast gene YEL037C): 1.0 | The level of expressed mRNA in the presence of chemical substance/The level of expressed mRNA in the absence of chemical substance (yeast gene YER162C): 1.2 | The level of expressed mRNA in the presence of chemical substance/The level of expressed mRNA in the absence of chemical substance (yeast gene YFL014W): 1.5 | The level of expressed mRNA in the presence of chemical substance/The level of expressed mRNA in the absence of chemical substance (yeast gene YGL058W): 1.1 | The level of expressed mRNA in the presence of chemical substance/The level of expressed mRNA in the absence of chemical substance (yeast gene YGL091C): 1.4 | The level of expressed mRNA in the presence of chemical substance/The level of expressed mRNA in the absence of chemical substance (yeast gene YGL127C): 1.0 | The level of expressed mRNA in the presence of chemical substance/The level of expressed mRNA in the absence of chemical substance (yeast gene YGL163C): 0.9 | The level of expressed mRNA in the presence of chemical substance/The level of expressed mRNA in the absence of chemical substance (yeast gene YGL249W): 1.0 | The level of expressed mRNA in the presence of chemical substance/The level of expressed mRNA in the absence of chemical substance (yeast gene YGR180C): 1.0 | The level of expressed mRNA in the presence of chemical substance/The level of expressed mRNA in the absence of chemical substance (yeast gene YGR231C): 1.0 | The level of expressed mRNA in the presence of chemical substance/The level of expressed mRNA in the absence of chemical substance (yeast gene YGR258C): 1.0 | The level of expressed mRNA in the presence of chemical substance/The level of expressed mRNA in the absence of chemical substance (yeast gene YHR164C): 0.8 | The level of expressed mRNA in the presence of chemical substance/The level of expressed mRNA in the absence of chemical substance (yeast gene YIL036W): 1.1 | The level of expressed mRNA in the presence of chemical substance/The level of expressed mRNA in the absence of chemical substance (yeast gene YIL072W): 1.0 | The level of expressed mRNA in the presence of chemical substance/The level of expressed mRNA in the absence of chemical substance (yeast gene YIL143C): 0.9 | The level of expressed mRNA in the presence of chemical substance/The level of expressed mRNA in the absence of chemical substance (yeast gene YIL153W): 0.9 | The level of expressed mRNA in the presence of chemical substance/The level of expressed mRNA in the absence of chemical substance (yeast gene YIR002C): 1.1 | The level of expressed mRNA in the presence of chemical substance/The level of expressed mRNA in the absence of chemical substance (yeast gene YJL026W): 1.4 | The level of expressed mRNA in the presence of chemical substance/The level of expressed mRNA in the absence of chemical substance (yeast gene YJR046W): 0.7 | The level of expressed mRNA in the presence of chemical substance/The level of expressed mRNA in the absence of chemical substance (yeast gene YJR052W): 1.0 | The level of expressed mRNA in the presence of chemical substance/The level of expressed mRNA in the absence of chemical substance (yeast gene YKL145W): 1.1 | The level of expressed mRNA in the presence of chemical substance/The level of expressed mRNA in the absence of chemical substance (yeast gene YLR103C): 1.1 | The level of expressed mRNA in the presence of chemical substance/The level of expressed mRNA in the absence of chemical substance (yeast gene YLR233C): 1.0 | The level of expressed mRNA in the presence of chemical substance/The level of expressed mRNA in the absence of chemical substance (yeast gene YLR288C): 1.2 | The level of expressed mRNA in the presence of chemical substance/The level of expressed mRNA in the absence of chemical substance (yeast gene YML032C): 1.0 | The level of expressed mRNA in the presence of chemical substance/The level of expressed mRNA in the absence of chemical substance (yeast gene YML058W): 1.3 | The level of expressed mRNA in the presence of chemical substance/The level of expressed mRNA in the absence of chemical substance (yeast gene YMR035W): 2.2 | The level of expressed mRNA in the presence of chemical substance/The level of expressed mRNA in the absence of chemical substance (yeast gene YMR072W): 0.9 | The level of expressed mRNA in the presence of chemical substance/The level of expressed mRNA in the absence of chemical substance (yeast gene YMR096W): 2.2 | The level of expressed mRNA in the presence of chemical substance/The level of expressed mRNA in the absence of chemical substance (yeast gene YMR284W): 1.1 | The level of expressed mRNA in the presence of chemical substance/The level of expressed mRNA in the absence of chemical substance (yeast gene YNL213C): 0.9 | The level of expressed mRNA in the presence of chemical substance/The level of expressed mRNA in the absence of chemical substance (yeast gene YNL250W): 1.0 | The level of expressed mRNA in the presence of chemical substance/The level of expressed mRNA in the absence of chemical substance (yeast gene YNL261W): 0.8 | The level of expressed mRNA in the presence of chemical substance/The level of expressed mRNA in the absence of chemical substance (yeast gene YNL312W): 1.2 | The level of expressed mRNA in the presence of chemical substance/The level of expressed mRNA in the absence of chemical substance (yeast gene YOL043C): 1.0 | The level of expressed mRNA in the presence of chemical substance/The level of expressed mRNA in the absence of chemical substance (yeast gene YOR005C): 1.1 | The level of expressed mRNA in the presence of chemical substance/The level of expressed mRNA in the absence of chemical substance (yeast gene YOR386W): 2.1 | The level of expressed mRNA in the presence of chemical substance/The level of expressed mRNA in the absence of chemical substance (yeast gene YPL022W): 0.9 | The level of expressed mRNA in the presence of chemical substance/The level of expressed mRNA in the absence of chemical substance (yeast gene YPL164C): 1.0 | The level of expressed mRNA in the presence of chemical substance/The level of expressed mRNA in the absence of chemical substance (yeast gene YPL194W): 1.0 | The level of expressed mRNA in the presence of chemical substance/The level of expressed mRNA in the absence of chemical substance (yeast gene YPR025C): 1.1
